# Source: ChEMBL document CHEMBL4118179, “Synthesis and biological evaluation of 6-hydroxyl C-aryl glucoside derivatives as novel sodium glucose co-transporter 2 (SGLT2) inhibitors” (Bioorg Med Chem Lett, 2018)
# Legend:
# [1] = biological target: T1, Sodium/glucose cotransporter 2 (Homo sapiens, UniProt P31639); experiment: Inhibition of full-length human SGLT2 expressed in CHO cells assessed as decrease in [14C]-methyl alpha-D-glucopyranoside uptake after 1 hr by liquid scintillation counting method; type: cell-based
# T1 sequence (P31639 whole entry): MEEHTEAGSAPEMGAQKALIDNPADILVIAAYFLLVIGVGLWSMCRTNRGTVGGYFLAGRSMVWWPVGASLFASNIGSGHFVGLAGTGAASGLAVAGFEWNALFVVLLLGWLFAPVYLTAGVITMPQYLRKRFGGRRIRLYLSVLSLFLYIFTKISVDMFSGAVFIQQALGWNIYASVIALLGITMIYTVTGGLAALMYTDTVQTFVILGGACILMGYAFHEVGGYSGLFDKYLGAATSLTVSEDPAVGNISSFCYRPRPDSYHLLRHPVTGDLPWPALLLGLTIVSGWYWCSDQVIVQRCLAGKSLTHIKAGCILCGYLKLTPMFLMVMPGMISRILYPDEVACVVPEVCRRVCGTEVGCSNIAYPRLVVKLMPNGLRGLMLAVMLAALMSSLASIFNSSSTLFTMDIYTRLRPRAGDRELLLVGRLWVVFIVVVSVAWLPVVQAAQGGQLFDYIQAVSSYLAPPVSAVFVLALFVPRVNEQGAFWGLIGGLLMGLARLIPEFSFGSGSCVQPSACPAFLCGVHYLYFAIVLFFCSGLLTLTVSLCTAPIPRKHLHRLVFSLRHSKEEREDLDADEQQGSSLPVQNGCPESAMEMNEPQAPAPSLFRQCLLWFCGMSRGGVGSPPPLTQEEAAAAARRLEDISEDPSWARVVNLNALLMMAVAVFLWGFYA
# [2] = biological target: T2, Sodium/glucose cotransporter 2 (Homo sapiens) (UniProt P31639); experiment: Inhibition of full-length human SGLT2 expressed in CHO cells assessed as decrease in [14C]-methyl alpha-D-glucopyranoside uptake at 0.5 uM after 1 hr by liquid scintillation counting method; type: cell-based
# T2 sequence (whole entry): T1 sequence (P31639 whole entry)
SMILES,IC50 [1] [nM],inhibition [2] [%]
CCOc1ccc(Cc2cc([C@@H]3O[C@H](CO)[C@@H](O)[C@H](O)[C@H]3O)c(O)cc2Cl)cc1,1.03,89.7
OC[C@H]1O[C@@H](c2cc(Cc3cc4ccccc4s3)c(Cl)cc2O)[C@H](O)[C@@H](O)[C@@H]1O,,97.5
Cc1ccc(Cc2cc([C@@H]3O[C@H](CO)[C@@H](O)[C@H](O)[C@H]3O)c(O)cc2Cl)cc1,0.81,101
OC[C@H]1O[C@@H](c2cc(Cc3cc4ccccc4s3)ccc2O)[C@H](O)[C@@H](O)[C@@H]1O,,103
COc1ccc(Cc2cc([C@@H]3O[C@H](CO)[C@@H](O)[C@H](O)[C@H]3O)c(O)cc2Cl)cc1,1.08,106
OC[C@H]1O[C@H]2c3cc(Cc4cc5ccccc5s4)c(Cl)cc3O[C@H]2[C@@H](O)[C@@H]1O,,48.7
CCc1ccc(Cc2cc3c(cc2Cl)O[C@H]2[C@@H](O)[C@H](O)[C@@H](CO)O[C@@H]32)cc1,,19.3
CCOc1ccc(Cc2ccc3c(c2)[C@@H]2O[C@H](CO)[C@@H](O)[C@H](O)[C@@H]2O3)cc1,,66.5
COc1ccc(Cc2cc3c(cc2Cl)O[C@H]2[C@@H](O)[C@H](O)[C@@H](CO)O[C@@H]32)cc1,,30.7
CCOc1ccc(Cc2cc([C@@H]3O[C@H](CO)[C@@H](O)[C@H](O)[C@H]3O)ccc2Cl)cc1,,103
CCOc1ccc(Cc2ccc(O)c([C@@H]3O[C@H](CO)[C@@H](O)[C@H](O)[C@H]3O)c2)cc1,12.2,104
CCc1ccc(Cc2cc([C@@H]3O[C@H](CO)[C@@H](O)[C@H](O)[C@H]3O)c(O)cc2Cl)cc1,0.63,100
CCOc1ccc(Cc2cc3c(cc2Cl)O[C@H]2[C@@H](O)[C@H](O)[C@@H](CO)O[C@@H]32)cc1,,8.6
OC[C@H]1O[C@H]2c3cc(Cc4cc5ccccc5s4)ccc3O[C@H]2[C@@H](O)[C@@H]1O,,1.8
Cc1ccc(Cc2cc3c(cc2Cl)O[C@H]2[C@@H](O)[C@H](O)[C@@H](CO)O[C@@H]32)cc1,,4.2
